Results taken from ChEMBL document CHEMBL5230087, “Inhibitors of SARS-CoV-2 Entry: Current and Future Opportunities” (J Med Chem, 2020).

What was measured:
[1] = molecular target: T1, Angiotensin-converting enzyme 2 (Homo sapiens, UniProt Q9BYF1); experiment: Inhibition of human ACE2 (unknown origin) at 0.5 uM
[2] = molecular target: T1, Angiotensin-converting enzyme 2; experiment: Binding affinity to ACE2 (unknown origin) at 10 uM assessed as inhibition constant
[3] = molecular target: T1, Angiotensin-converting enzyme 2; experiment: Inhibition of human recombinant ACE2 at 50 uM using (7Mca-Y-V-A- D -A-P- K(Knp) as a flurogenic substrate measured after 10 mins by fluorescence based analysis
[4] = molecular target: Procathepsin L (Homo sapiens, UniProt P07711); experiment: Inhibition of human recombinant Cathepsin L […] using Z-FR-AMC as substrate incubated for 30 mins by fluorometric assay
[5] = Antiviral activity against pseudovirus SARS-CoV spike protein infected in HeLa cells over expressing ACE2 assessed as inhibition on pseudovirus infection incubated for 52 hrs by luminescence based microplate reader analysis; format: functional, cell-based
[6] = Cytotoxicity against african green monkey Vero cells incubated for 3 days; format: toxicity, cell-based; settings: chlorocebus sabaeus, time 3 day
[7] = test system: SARS-CoV-2; experiment: Antiviral activity against SARS-COV2 infected in African green monkey Vero B cells incubated for 48 hrs by ELISA; format: functional, organism-based; settings: Severe acute respiratory syndrome coronavirus 2, Vero B
[8] = test system: SARS-CoV; experiment: Antiviral activity against SARS-CoV infected in African green monkey Vero cells assessed as viral growth inhibition; format: functional, organism-based; settings: Severe acute respiratory syndrome-related coronavirus
[9] = test system: Mus musculus; experiment: Antiviral activity against MERS-COV infected in BALB/c mouse at 5 mg/kg; format: functional, organism-based
[10] = test system: Human coronavirus 229E; experiment: Antiviral activity against HCoV-229E; format: functional, organism-based
[11] = test system: Human coronavirus OC43; experiment: Antiviral activity against HCoV-OC43 assessed as viral growth inhibition; format: functional, organism-based; settings: Betacoronavirus 1
[12] = Antiviral activity against HCoV-NL63 assessed as viral growth inhibition; format: functional, Human coronavirus NL63
[13] = Inhibition of MERS-CoV Main protease; parameters: species or system Middle East respiratory syndrome-related coronavirus
[14] = Inhibition of clathrin mediated endocytosis (unknown origin); parameters: species or system Homo sapiens
[15] = Selectivity index, ratio of CC50 for African green monkey Vero cells to EC50 for SARS-CoV-2 nCoV-2019; format: toxicity; settings: read-out: Selectivity Index
[16] = molecular target: T1, Angiotensin-converting enzyme 2; experiment: Inhibition of SARS-CoV S binding to human recombinant ACE2 expressed in Escherichia coli BL21(DE3) incubated for 2 hrs by ELISA method

T1 sequence (Q9BYF1 whole entry): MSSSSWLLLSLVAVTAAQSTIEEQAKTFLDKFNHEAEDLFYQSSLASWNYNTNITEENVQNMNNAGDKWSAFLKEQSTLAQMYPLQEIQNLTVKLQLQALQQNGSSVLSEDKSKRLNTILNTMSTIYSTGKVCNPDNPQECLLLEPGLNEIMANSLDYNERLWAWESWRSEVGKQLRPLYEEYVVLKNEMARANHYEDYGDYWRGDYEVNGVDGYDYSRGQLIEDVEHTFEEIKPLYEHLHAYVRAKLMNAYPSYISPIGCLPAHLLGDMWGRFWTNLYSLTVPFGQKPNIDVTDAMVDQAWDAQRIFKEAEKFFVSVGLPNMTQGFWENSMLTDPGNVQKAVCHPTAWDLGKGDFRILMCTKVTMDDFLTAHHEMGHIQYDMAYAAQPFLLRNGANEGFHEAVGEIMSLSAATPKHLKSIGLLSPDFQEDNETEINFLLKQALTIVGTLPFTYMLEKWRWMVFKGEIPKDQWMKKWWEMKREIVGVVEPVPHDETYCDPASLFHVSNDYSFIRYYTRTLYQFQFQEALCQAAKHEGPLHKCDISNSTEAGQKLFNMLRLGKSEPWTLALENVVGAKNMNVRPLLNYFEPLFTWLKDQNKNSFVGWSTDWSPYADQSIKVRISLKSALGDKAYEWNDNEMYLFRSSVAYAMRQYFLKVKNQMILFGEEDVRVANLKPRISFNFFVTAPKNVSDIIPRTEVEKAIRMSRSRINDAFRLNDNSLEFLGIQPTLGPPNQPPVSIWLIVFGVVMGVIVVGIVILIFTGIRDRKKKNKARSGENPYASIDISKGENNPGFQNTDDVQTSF
Chain of Procathepsin L (P07711 whole entry): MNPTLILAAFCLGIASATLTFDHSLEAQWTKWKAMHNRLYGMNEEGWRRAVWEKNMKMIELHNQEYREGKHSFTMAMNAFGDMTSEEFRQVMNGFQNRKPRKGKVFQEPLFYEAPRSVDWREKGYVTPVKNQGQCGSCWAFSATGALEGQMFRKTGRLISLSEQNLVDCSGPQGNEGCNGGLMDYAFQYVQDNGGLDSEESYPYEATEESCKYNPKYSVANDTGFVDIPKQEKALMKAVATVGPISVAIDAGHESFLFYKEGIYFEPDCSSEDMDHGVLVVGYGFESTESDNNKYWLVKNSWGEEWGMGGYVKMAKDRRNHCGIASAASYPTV

With `CC(C)C[C@H](NC(=O)[C@@H]1CCCN1C(=O)[C@H](CO)NC(=O)[C@H](CS)NC(=O)[C@H](Cc1cnc[nH]1)NC(=O)[C@H](CO)NC(=O)[C@H](Cc1ccc(O)cc1)NC(=O)[C@H](CC(=O)O)NC(=O)CN)C(=O)N[C@@H](CCCNC(=N)N)C(=O)N[C@@H](Cc1ccc(O)cc1)C(=O)N[C@@H](Cc1ccc(O)cc1)C(=O)N1CCC[C@H]1C(=O)N[C@@H](Cc1c[nH]c2ccccc12)C(=O)N[C@@H](Cc1c[nH]c2ccccc12)C(=O)N[C@@H](CCCCN)C(=O)N[C@@H](CS)C(=O)N[C@H](C(=O)N[C@@H](Cc1ccc(O)cc1)C(=O)N1CCC[C@H]1C(=O)N[C@@H](CC(=O)O)C(=O)N1CCC[C@H]1C(=O)N[C@@H](CCC(=O)O)C(=O)NCC(=O)NCC(=O)NCC(=O)O)[C@@H](C)O` the IC50 [1] was 10 nM and the Ki [2] was 2.8 nM.

With `CCC[C@@H]([C@@H](CC(C)C)C(=O)N[C@@H](CCCCNC(=O)OCc1ccccc1)C(=O)Nc1nccs1)N(O)C=O` the IC50 [3] was 1 nM.

With `CN(C)C(=O)COC(=O)Cc1ccc(OC(=O)c2ccc(NC(=N)N)cc2)cc1` [CAMOSTAT] the IC50 [4] was 10000 nM.

Compound `NCCNCCN1CC1` has a Ki [2] of 459000 nM.

Work on `CCN(CCO)CCCC(C)Nc1ccnc2cc(Cl)ccc12` (stereo not given) [HYDROXYCHLOROQUINE] yielded an IC50 [3] of 720 nM.

With `C/C(=N/NC(N)=S)c1cccs1` the EC50 [5] was 6400 nM, the IC50 [4] was 5330 nM and the CC50 at 72 h [6] was 100000 nM.

In the case of `CCN(CC)CCCC(C)Nc1ccnc2cc(Cl)ccc12` (stereo not given) [CHLOROQUINE], the IC50 [7] is reported as 1130 nM, the IC50 [3] is reported as 1130 nM and the CC50 at 72 h [6] is reported as > 100000 nM.

With `C=C(N[C@@H](CCCN=C(N)N)C(=O)Cl)[C@@H](CCCCN)NC(=O)[C@H](NC(=O)[C@H](CCCN=C(N)N)NC(=O)CCCCCCCCCC)C(C)C` the IC50 [4] was 75000 nM.

For `CC[C@H](C)[C@H](NC(=O)[C@H](C)NC(=O)[C@H](CCCCN)NC(=O)[C@H](CC(N)=O)NC(=O)[C@H](Cc1ccccc1)NC(=O)[C@H](CCC(N)=O)NC(=O)[C@H](CC(N)=O)NC(=O)[C@H](C)NC(=O)[C@@H](NC(=O)[C@H](CCC(N)=O)NC(=O)[C@H](CCCCN)NC(=O)[C@H](CCC(N)=O)NC(=O)[C@H](CC(N)=O)NC(=O)[C@H](CCC(=O)O)NC(=O)[C@@H](N)Cc1ccc(O)cc1)[C@@H](C)CC)C(=O)N[C@@H](CO)C(=O)N[C@@H](CCC(N)=O)C(=O)N[C@H](C(=O)N[C@@H](CCC(N)=O)C(=O)N[C@@H](CCC(=O)O)C(=O)N[C@@H](CO)C(=O)N[C@@H](CC(C)C)C(=O)N[C@H](C(=O)N[C@H](C(=O)N[C@H](C(=O)N[C@@H](CO)C(=O)N[C@H](C(=O)N[C@@H](C)C(=O)O)[C@@H](C)O)[C@@H](C)O)[C@@H](C)O)[C@@H](C)O)[C@@H](C)CC`, the EC50 [8] was 1610 nM.

Work on `CC[C@H](C)[C@H](NC(=O)[C@H](C)NC(=O)[C@H](CCC(=O)O)NC(=O)[C@H](CCC(=O)O)NC(=O)[C@H](CC(C)C)NC(=O)[C@H](CCCCN)NC(=O)[C@H](CCCCN)NC(=O)[C@H](CCSC)NC(=O)[C@H](CCC(=O)O)NC(=O)[C@H](Cc1ccc(O)cc1)NC(=O)[C@H](CCC(=O)O)NC(=O)[C@H](CC(C)C)NC(=O)[C@H](CC(=O)O)NC(=O)[C@H](CC(C)C)NC(=O)[C@H](Cc1ccccc1)NC(=O)[C@@H](NC(=O)[C@@H](NC(=O)[C@H](CC(N)=O)NC(=O)[C@@H](NC(=O)[C@H](CCC(N)=O)NC(=O)[C@H](CC(=O)O)NC(=O)[C@H](CC(C)C)NC(=O)[C@@H](N)CO)[C@@H](C)CC)C(C)C)[C@@H](C)O)C(=O)N[C@@H](CCCCN)C(=O)N[C@@H](CCCCN)C(=O)N[C@@H](CC(C)C)C(=O)N[C@@H](CCC(=O)O)C(=O)N[C@@H](CCC(=O)O)C(=O)N[C@@H](CO)C(=O)N[C@@H](Cc1ccc(O)cc1)C(=O)N[C@H](C(=O)N[C@@H](CC(=O)O)C(=O)N[C@@H](CC(C)C)C(=O)N[C@@H](CCCCN)C(=O)N[C@@H](CCC(=O)O)C(=O)N[C@@H](CC(C)C)C(=O)O)[C@@H](C)CC` yielded an IC50 [9] of 2380 nM, an IC50 [10] of 3350 nM and an IC50 [11] of 1810 nM. It also gave an IC50 [12] of 6020 nM and an IC50 [13] of 190 nM.

With `COc1ccc(S(=O)(=O)O)cc1/N=N/c1c(S(=O)(=O)O)cc2cc(Nc3nc(Nc4ccccc4)nc(Nc4cc(C)c(/N=N/c5cc(S(=O)(=O)O)cc6cc(S(=O)(=O)O)cc(O)c56)cc4OC)n3)ccc2c1O` the CC50 at 72 h [6] was 26900 nM.

For `CC(CN1c2ccccc2Sc2ccccc21)N(C)C` (stereo not given) [PROMETHAZINE], the IC50 [14] was 7480 nM.

`O=c1cc(-c2ccc(O)c(O)c2)oc2cc(O)cc(O)c12` [LUTEOLIN] gave a selectivity ratio [15] of 14.6 and a CC50 at 72 h [6] of 155000 nM.

Compound `CC[C@H](C)[C@H](NC(=O)CNC(=O)[C@@H](NC(=O)[C@@H](NC(=O)[C@@H](NC(=O)[C@H](Cc1ccc(O)cc1)NC(=O)[C@@H](N)Cc1ccccc1)[C@@H](C)O)[C@@H](C)O)[C@@H](C)O)C(=O)NCC(=O)N[C@@H](Cc1ccc(O)cc1)C(=O)N[C@@H](CCC(N)=O)C(=O)N1CCC[C@@H]1C(=O)N[C@H](Cc1ccc(O)cc1)C(=O)O` has an IC50 [16] of 6.99 nM.

`CC(C)CC(CC(=O)NO)C(=O)NC(C(=O)NC(C)C(=O)NCCN)C(C)(C)C` (stereo not given) showed an IC50 [3] of 200 nM.
